Key:
Format in all cases: in vivo
[1] = test system: Viola tricolor; test: Post-emergence herbicidal activity against VIOTR; settings: Viola tricolor, 504 h, dosage 320 g/ha, rated visually after about 3 weeks
How it was run: (§1)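 Seeds sown in sandy loam, greenhouse-grown; at one-leaf stage (2–3 wk) sprayed with WP/EC in water + 0.5% additive, 600 l/ha. ~3 wk greenhouse hold, then visual % activity vs untreated (100% = plants dead).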

[2] = test system: Echinochloa crus-galli; test: Post-emergence herbicidal activity against ECHCG; settings: Echinochloa crus-galli, 504 h, dosage 320 g/ha, rated visually after about 3 weeks
How it was run: as §1

[3] = test system: Stellaria media; test: Post-emergence herbicidal activity against STEME; settings: Stellaria media, 504 h, dosage 320 g/ha, rated visually after about 3 weeks
How it was run: as §1

[4] = test system: Amaranthus retroflexus; test: Post-emergence herbicidal activity against AMARE; settings: Amaranthus retroflexus, 504 h, dosage 320 g/ha, rated visually after about 3 weeks
How it was run: as §1

[5] = test system: Stellaria media; test: Pre-emergence herbicidal activity against STEME; settings: Stellaria media, 504 h, dosage 80 g/ha, scored visually after about 3 weeks vs untreated controls
How it was run: (§2)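 Visual percent rating against untreated controls after roughly 3 weeks in the greenhouse, 0% meaning control-like and 100% dead plants. Treatment was pre-emergence: WP or EC formulations sprayed onto covering soil at 600 l/ha water volume with 0.5% additive.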

[6] = test system: Avena fatua; test: Pre-emergence herbicidal activity against AVEFA; settings: Avena fatua, 504 h, dosage 80 g/ha, scored visually after about 3 weeks vs untreated controls, read-out: Pre-emergence herbicidal activity in % against AVEVA (AVEFA)
How it was run: as §2

[7] = Pre-emergence herbicidal action against harmful plants (summary of the tables); settings: 504 h, application rate of 0.08 kg of active substance or less per hectare, read-out: herbicidal action, pre-emergence treatment (very good activity)
How it was run: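 Seeds of weeds and crops were covered with soil, then WP or EC formulations were sprayed onto the soil surface pre-emergence at 600 l/ha water with 0.5% additive. Plants were grown in a greenhouse for about 3 weeks, and damage was scored visually as a percentage versus untreated controls (100% = plants dead).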

[8] = test system: Alopecurus myosuroides; test: Post-emergence herbicidal activity against ALOMY; settings: Alopecurus myosuroides, 504 h, dosage 320 g/ha, rated visually after about 3 weeks
How it was run: as §1

[9] = test system: Amaranthus retroflexus; test: Pre-emergence herbicidal activity against AMARE; settings: Amaranthus retroflexus, 504 h, dosage 80 g/ha, scored visually after about 3 weeks vs untreated controls
How it was run: as §2

[10] = test system: Hordeum murinum; test: Pre-emergence herbicidal activity against HORMU; settings: Hordeum murinum, 504 h, dosage 80 g/ha
How it was run: as §2

[11] = test system: Hordeum murinum; test: Post-emergence herbicidal activity against HORMU; settings: Hordeum murinum, 504 h, dosage 320 g/ha, rated visually after about 3 weeks
How it was run: as §1

[12] = test system: Abutilon theophrasti; test: Pre-emergence herbicidal activity against ABUTH; settings: dosage 80 g/ha, scored visually after about 3 weeks vs untreated controls
Description: (§3) 1. Pre-emergence herbicidal action against harmful plants and crop plant compatibility Seeds of monocotyledonous and dicotyledonous weed plants and crop plants are placed in plastic or wood fiber pots and covered with soil. The compounds of the invention, formulated in the form of wettable powders (WP) or as emulsion concentrates (EC), are then applied onto the surface of the covering soil as aqueous suspension or emulsion with addition of 0.5% additive at a water application rate of 600 l/ha (converted). After the treatment, the pots are placed in a greenhouse and kept under good growth conditions for the trial plants. After about 3 weeks, the effect of the preparations is scored visually in comparison with untreated controls as percentages. For example, 100% activity=the plants have died, 0% activity=like control plants. [table]

[13] = test system: Viola tricolor; test: Pre-emergence herbicidal activity against VIOTR; settings: Viola tricolor, 504 h, dosage 80 g/ha, scored visually after about 3 weeks vs untreated controls
How it was run: as §2

[14] = test system: Polygonum convolvulus; test: Post-emergence herbicidal activity against POLCO; settings: Fallopia convolvulus, 504 h, dosage 320 g/ha, rated visually after about 3 weeks
How it was run: as §1

[15] = test system: Alopecurus myosuroides; test: Pre-emergence herbicidal activity against ALOMY; settings: Alopecurus myosuroides, 504 h, dosage 80 g/ha, scored visually after about 3 weeks vs untreated controls
How it was run: as §2

[16] = test system: Pharbitis purpurea; test: Pre-emergence herbicidal activity against PHBPU; settings: dosage 80 g/ha, scored visually after about 3 weeks vs untreated controls
Description: as §3

[17] = test system: Polygonum convolvulus; test: Pre-emergence herbicidal activity against POLCO; settings: Fallopia convolvulus, 504 h, dosage 80 g/ha, scored visually after about 3 weeks vs untreated controls
How it was run: as §2

[18] = test system: Pharbitis purpurea; test: Post-emergence herbicidal activity against PHBPU; settings: Ipomoea purpurea, 504 h, dosage 320 g/ha, rated visually after about 3 weeks
How it was run: as §1

[19] = test system: Avena fatua; test: Post-emergence herbicidal activity against AVEFA; settings: Avena fatua, 504 h, dosage 320 g/ha, rated visually after about 3 weeks
How it was run: as §1

[20] = test system: Lolium rigidum; test: Pre-emergence herbicidal activity against LOLRI; settings: Lolium rigidum, 504 h, dosage 80 g/ha, scored visually after about 3 weeks vs untreated controls
How it was run: as §2

[21] = test system: Lolium rigidum; test: Post-emergence herbicidal activity against LOLRI; settings: Lolium rigidum, 504 h, dosage 320 g/ha, rated visually after about 3 weeks
How it was run: as §1

[22] = test system: Veronica persica; test: Post-emergence herbicidal activity against VERPE; settings: Veronica persica, 504 h, dosage 320 g/ha, rated visually after about 3 weeks
How it was run: as §1

[23] = test system: Veronica persica; test: Pre-emergence herbicidal activity against VERPE; settings: Veronica persica, 504 h, dosage 80 g/ha
How it was run: as §2

[24] = test system: Echinochloa crus-galli; test: Pre-emergence herbicidal activity against ECHCG; settings: Echinochloa crus-galli, 504 h, dosage 80 g/ha, scored visually after about 3 weeks vs untreated controls
How it was run: as §2

[25] = test system: Setaria viridis; test: Pre-emergence herbicidal activity against SETVI; settings: Setaria viridis, 504 h, dosage 80 g/ha, scored visually after about 3 weeks vs untreated controls
How it was run: as §2

[26] = test system: Setaria viridis; test: Post-emergence herbicidal activity against SETVI; settings: Setaria viridis, 504 h, dosage 320 g/ha, rated visually after about 3 weeks
How it was run: as §1

[27] = test system: Abutilon theophrasti; test: Post-emergence herbicidal activity against ABUTH; settings: Abutilon theophrasti, 504 h, dosage 320 g/ha, rated visually after about 3 weeks
How it was run: as §1

[28] = test system: Cyperus esculentus; test: Pre-emergence herbicidal activity against CYPES; settings: dosage 80 g/ha, scored visually after about 3 weeks vs untreated controls
Description: as §3

Row | SMILES | pest or weed control at 320 g/ha [1] | pest or weed control at 320 g/ha [2] | pest or weed control at 320 g/ha [3] | pest or weed control at 80 g/ha [5] | pest or weed control at 80 g/ha [6] | pest or weed control at 80 g/ha [7] | pest or weed control at 320 g/ha [8] | pest or weed control at 80 g/ha [9] | pest or weed control at 80 g/ha [10] | pest or weed control at 80 g/ha [13] | pest or weed control at 320 g/ha [14] | pest or weed control at 80 g/ha [15] | Pre-emergence herbicidal activity in % against PHBPU [16] | pest or weed control at 80 g/ha [17] | pest or weed control at 320 g/ha [18] | pest or weed control at 320 g/ha [19] | pest or weed control at 80 g/ha [20] | pest or weed control at 320 g/ha [21] | pest or weed control at 320 g/ha [22] | pest or weed control at 80 g/ha [24] | also measured
1 | C=C[C@]1(C(=O)N[C@@H]2CO[C@H](C(=O)N(C)C)C2)CC(c2cc(F)cc(F)c2)=NO1 (mixture of isomers) [Example I-17, (5S)-3-(3,5-difluorophenyl)-N-[cis-5-(dimethylcarbamoyl)tetrahydrofuran-3-yl]-5-vinyl-4H-isoxazole-5-carboxamide] | 80% | 80% | 90% | 100% | 100% | 80 to 100% | 90% | 100% | 100% | 100% | 80% | 90% | 90% | 100% | 80% | 90% | 100% | 90% | 80% | 100% | pest or weed control at 320 g/ha [4]: 90%; pest or weed control at 320 g/ha [11]: 80%; Pre-emergence herbicidal activity in % against ABUTH [12]: 80%; pest or weed control at 80 g/ha [23]: 100%; pest or weed control at 80 g/ha [25]: 100%; pest or weed control at 320 g/ha [26]: 90%
2 | C=C[C@]1(C(=O)N[C@@H]2CO[C@H](C(=O)NOC)C2)CC(c2cc(F)cc(F)c2)=NO1 (mixture of isomers) [Example I-11, (5S)-3-(3,5-difluorophenyl)-N-[cis-5-(methoxycarbamoyl)tetrahydrofuran-3-yl]-5-vinyl-4H-isoxazole-5-carboxamide] | 80% | 90% | 90% | 100% | 100% | 80 to 100% | 90% | 100% | 90% | 100% | 80% | 100% | 90% | 100% | 80% | 90% | 100% | 90% | 80% | 100% | Pre-emergence herbicidal activity in % against ABUTH [12]: 100%; pest or weed control at 320 g/ha [27]: 80%; pest or weed control at 80 g/ha [23]: 90%; pest or weed control at 80 g/ha [25]: 100%; pest or weed control at 320 g/ha [26]: 90%
3 | C=C[C@]1(C(=O)N[C@@H]2CO[C@H](C(=O)NOC(C)C)C2)CC(c2cc(F)cc(F)c2)=NO1 (mixture of isomers) [Example I-13, (5S)-3-(3,5-difluorophenyl)-N-[cis-5-(isopropoxycarbamoyl)tetrahydrofuran-3-yl]-5-vinyl-4H-isoxazole-5-carboxamide] | 80% | 90% | 90% | 100% | 100% | 80 to 100% | 90% | 100% | 100% | 100% | 80% | 100% | 90% | 100% | 80% | 90% | 100% | 90% | 80% | 100% | pest or weed control at 320 g/ha [4]: 80%; pest or weed control at 320 g/ha [11]: 90%; pest or weed control at 320 g/ha [27]: 80%; pest or weed control at 80 g/ha [23]: 90%; pest or weed control at 80 g/ha [25]: 100%; pest or weed control at 320 g/ha [26]: 90%
4 | CNC(=O)C1COCC1NC(=O)C1(C)CC(c2cc(F)cc(F)c2)=NO1 (stereo not shown) [Example I-07, 3-(3,5-difluorophenyl)-5-methyl-N-[4-(methylcarbamoyl)tetrahydrofuran-3-yl]-4H-isoxazole-5-carboxamide] | – | – | – | – | – | – | – | – | – | – | 80% | – | – | – | 80% | – | – | – | – | 100% | Pre-emergence herbicidal activity in % against ABUTH [12]: 100%
5 | CC1(C(=O)NC2COCC2C(=O)N2CCCC2)CC(c2cc(F)cc(F)c2)=NO1 (stereo not shown) [Example I-09, 3-(3,5-difluorophenyl)-5-methyl-N-[4-(pyrrolidine-1-carbonyl)tetrahydrofuran-3-yl]-4H-isoxazole-5-carboxamide] | – | – | – | – | – | – | – | – | – | – | – | – | – | – | 80% | – | – | – | – | – | Pre-emergence herbicidal activity in % against CYPES [28]: 100%
6 | C=C[C@]1(C(=O)N[C@@H]2CO[C@H](C(=O)NC3CC3)C2)CC(c2cc(F)cc(F)c2)=NO1 (mixture of isomers) [Example I-18, (5S)—N-[cis-5-(cyclopropylcarbamoyl)tetrahydrofuran-3-yl]-3-(3,5-difluorophenyl)-5-vinyl-4H-isoxazole-5-carboxamide] | 80% | 90% | 90% | 100% | 90% | 80 to 100% | 90% | 100% | 100% | 100% | 90% | 100% | 90% | 100% | 90% | 90% | 100% | 90% | 80% | 90% | pest or weed control at 320 g/ha [4]: 90%; pest or weed control at 320 g/ha [11]: 90%; pest or weed control at 320 g/ha [27]: 90%; pest or weed control at 80 g/ha [23]: 90%; pest or weed control at 80 g/ha [25]: 100%; pest or weed control at 320 g/ha [26]: 90%
